Holding throughout (assay): ≥ marks a high value that may be exact or a test limit, other limits are often not marked, values filed in µg/mL are converted to µM
One experiment relates to Escherichia coli.
In experiment [1] the test system is Staphylococcus aureus ATCC 29213.
Experiment [2] deals with Escherichia coli ATCC 25922.
A further experiment relates to Staphylococcus aureus.
Experiment [3] deals with Staphylococcus aureus ATCC 25923.
Experiment [4] deals with Pseudomonas aeruginosa ATCC 27853.
The test system of experiment [5] is Enterococcus faecalis ATCC 29212.
The subject of experiment [6] is Klebsiella pneumoniae ATCC 700603.
Experiment [7] concerns Candida albicans ATCC 90028.

The structures appear in SMILES notation. ≈ marks a conversion by molar mass, not a printed value. Some results are limits rather than exact numbers.

Consider `CC(C)C[C@H](NC(=O)[C@H](CCCCN)NC(=O)[C@H](CC(C)C)NC(=O)[C@H](CC(C)C)NC(=O)[C@H](CCCCN)NC(=O)[C@H](CCCCN)NC(=O)[C@@H]1CSSC[C@H](N)C(=O)N[C@@H](CCCCN)C(=O)N[C@@H](CCCCN)C(=O)N[C@@H](CC(C)C)C(=O)N[C@@H](CC(C)C)C(=O)N[C@@H](CCCCN)C(=O)N[C@@H](CC(C)C)C(=O)N1)C(=O)N[C@@H](C)C(=O)NCC(=O)O` [CKKLLKLCKKLLKLAG], for which the MIC in the experiment on Escherichia coli was 40 µM (≈ 71.9 µg/mL); in experiment [1], more than 40 µM; in experiment [2], 10 µM (≈ 18 µg/mL).
With `CC[C@H](C)[C@H](NC(=O)[C@H](CCCN=C(N)N)NC(=O)[C@H](CCC(N)=O)NC(=O)[C@@H](NC(=O)[C@@H](NC(=O)[C@H](CCCN=C(N)N)NC(=O)[C@H](CCCCN)NC(=O)[C@@H](N)Cc1ccccc1)[C@@H](C)CC)C(C)C)C(=O)N[C@@H](CCCCN)C(=O)N[C@@H](CC(=O)O)C(=O)NCC(=O)N[C@@H](CC(C)C)C(=O)N[C@@H](CCCN=C(N)N)C(=O)O` [FKRIVQRIKDGLR], the MIC in experiment [1] is more than 40 µM; in [2] it was 20 µM (≈ 32.6 µg/mL).
Take `CC[C@H](C)[C@H](NC(=O)[C@H](CCCCN)NC(=O)[C@H](CC(C)C)NC(=O)[C@H](C)NC(=O)[C@H](CCCCN)NC(=O)CNC(=O)[C@H](CC(C)C)NC(=O)[C@H](CC(C)C)NC(=O)[C@H](CO)NC(=O)CNC(=O)[C@H](Cc1ccccc1)NC(=O)CN)C(=O)NCC(=O)N[C@H](C(=O)N[C@@H](CC(N)=O)C(=O)N[C@@H](CC(C)C)C(=O)N[C@@H](CC(C)C)C(N)=O)[C@@H](C)O` [GFGSLLGKALKIGTNLL]: the minimum inhibitory concentration (MIC) was found to be 25 µM (≈ 42.5 µg/mL) in the experiment on Escherichia coli and 6 µM (≈ 10.2 µg/mL) against Staphylococcus aureus.
For `CC[C@H](C)[C@H](NC(=O)CN)C(=O)NCC(=O)N[C@@H](CO)C(=O)N[C@@H](CC(C)C)C(=O)N[C@@H](CC(C)C)C(=O)N[C@@H](C)C(=O)N[C@@H](CCCCN)C(=O)N[C@@H](C)C(=O)N[C@@H](C)C(=O)N[C@@H](CCCCN)C(=O)N[C@@H](CC(C)C)C(=O)NCC(=O)N[C@@H](C)C(=O)N[C@@H](CC(N)=O)C(=O)N[C@@H](CC(C)C)C(=O)N[C@@H](CC(C)C)C(N)=O` [GIGSLLAKAAKLGANLL], the MIC in the experiment on Escherichia coli was 25 µM (≈ 40.2 µg/mL); in the experiment with Staphylococcus aureus it was 12.5 µM (≈ 20.1 µg/mL).
As to `CC[C@H](C)[C@H](NC(=O)[C@H](CCCCN)NC(=O)[C@H](CO)NC(=O)[C@H](Cc1c[nH]c2ccccc12)NC(=O)[C@H](CC(C)C)NC(=O)CN)C(=O)N[C@@H](CCCCN)C(=O)N[C@@H](CCC(=O)O)C(=O)N[C@@H](C)C(=O)N[C@@H](C)C(=O)N[C@@H](CCCCN)C(=O)N[C@H](C(=O)N[C@@H](C)C(=O)NCC(=O)N[C@@H](CC(C)C)C(=O)N[C@@H](CCSC)C(=O)N[C@@H](C)C(=O)N[C@@H](CCSC)C(=O)NCC(=O)N[C@@H](Cc1ccccc1)C(=O)N[C@H](C(=O)N[C@@H](CC(N)=O)C(=O)N[C@@H](CC(=O)O)C(=O)N[C@@H](CCSC)C(=O)N[C@H](C(=O)O)C(C)C)C(C)C)[C@@H](C)O` [GLWSKIKEAAKTAGLMAMGFVNDMV], the MIC stood at 22 µM (≈ 58.7 µg/mL) in [3], 22 µM (≈ 58.7 µg/mL) in experiment [4], 5.6 µM (≈ 14.9 µg/mL) in experiment [2] and 11 µM (≈ 29.4 µg/mL) in experiment [5].
Consider `NCC(=O)N[C@@H](CCCN=C(N)N)C(=O)N[C@@H](CCCN=C(N)N)C(=O)N1CCC[C@H]1C(=O)N[C@@H](CCCN=C(N)N)C(=O)N1CCC[C@H]1C(=O)N[C@@H](CCCN=C(N)N)C(=O)N1CCC[C@H]1C(=O)N[C@@H](CCCN=C(N)N)C(=O)N1CCC[C@H]1C(=O)N[C@@H](Cc1c[nH]c2ccccc12)C(=O)N[C@@H](Cc1c[nH]c2ccccc12)C(=O)N[C@@H](Cc1c[nH]c2ccccc12)C(=O)N[C@@H](Cc1c[nH]c2ccccc12)C(N)=O` [GRRPRPRPRPWWWW], for which the MIC stood at 40 µM (≈ 79.5 µg/mL) in experiment [1], 20 µM (≈ 39.8 µg/mL) in experiment [4] and 20 µM (≈ 39.8 µg/mL) in experiment [2].
Take `CC[C@H](C)[C@H](NC(=O)[C@@H](NC(=O)[C@@H]1CCCN1C(=O)[C@@H](NC(=O)[C@@H]1CCCN1C(=O)[C@H](CCCCN)NC(=O)[C@H](CCCCN)NC(=O)[C@H](CO)NC(=O)CN)C(C)C)[C@@H](C)CC)C(=O)N[C@@H](Cc1ccc(O)cc1)C(=O)N[C@H]1CSSC[C@@H](C(=O)N[C@@H](CCC(N)=O)C(=O)N[C@@H](CCCN=C(N)N)C(=O)N[C@@H](CCSC)C(=O)O)NC(=O)[C@H](CCCCN)NC(=O)[C@H](C)NC(=O)[C@H](CO)NC(=O)[C@H](CCCN=C(N)N)NC(=O)[C@H](CCCN=C(N)N)NC(=O)[C@H](CC(N)=O)NC1=O` [GSKKPVPIIYCNRRSAKCQRM]: the MIC in experiment [6] and in experiment [2] was 26.3 µM (≈ 63.9 µg/mL) throughout.
Regarding `CC[C@H](C)[C@H](N)C(=O)NCC(=O)N[C@@H](CCCCN)C(=O)N[C@@H](CC(C)C)C(=O)N[C@H](C(=O)N[C@@H](CCCCN)C(=O)N[C@@H](Cc1c[nH]c2ccccc12)C(=O)N[C@H](C(=O)N[C@H](C(=O)N[C@@H](CCCCN)C(=O)N[C@H](C(=O)N[C@H](C(=O)N[C@@H](CC(N)=O)C(=O)N[C@@H](CCCCN)C(=O)N[C@@H](Cc1ccccc1)C(=O)N[C@H](C(=O)N[C@@H](CCCCN)C(=O)N[C@@H](CCCCN)C(=O)O)[C@@H](C)O)C(C)C)[C@@H](C)O)[C@@H](C)CC)[C@@H](C)CC)C(C)C` [IGKLVKWIIKTVNKFTKK], the MIC in the experiment with Escherichia coli turned out to be 2.1 µM (≈ 4.5 µg/mL); against Staphylococcus aureus, 3.7 µM (≈ 7.94 µg/mL).
With `CC[C@H](C)[C@H](NC(=O)[C@H](CCCN=C(N)N)NC(=O)[C@H](CCC(N)=O)NC(=O)[C@@H](NC(=O)[C@@H](NC(=O)[C@H](CCCN=C(N)N)NC(=O)[C@@H](N)CCCCN)[C@@H](C)CC)C(C)C)C(=O)N[C@@H](CCCCN)C(=O)N[C@@H](CC(=O)O)C(=O)N[C@@H](C)C(=O)N[C@@H](CC(C)C)C(=O)N[C@@H](CCCN=C(N)N)C(=O)O` [KRIVQRIKDALR], the minimal inhibitory concentration (MIC) in experiment [1] turned out to be 40 µM (≈ 59.8 µg/mL); in [7], 20 µM (≈ 29.9 µg/mL); in experiment [4], 20 µM (≈ 29.9 µg/mL); in experiment [2], 10 µM (≈ 15 µg/mL).
Take `CC(C)C[C@H](NC(=O)[C@H](CCCCN)NC(=O)[C@H](CC(C)C)NC(=O)[C@H](CC(C)C)NC(=O)[C@H](CCCCN)NC(=O)[C@H](CCCCN)NC(=O)[C@@H]1CCCN1C(=O)[C@H](CC(C)C)NC(=O)[C@H](CCCCN)NC(=O)[C@H](CC(C)C)NC(=O)[C@H](CC(C)C)NC(=O)[C@H](CCCCN)NC(=O)[C@H](CCCCN)NC(=O)[C@@H](N)CC(C)C)C(=O)N[C@@H](C)C(=O)NCC(=O)O` [LKKLLKLPKKLLKLAG]: the minimum inhibitory concentration (MIC) was more than 40 µM in [1] and 5 µM (≈ 9.02 µg/mL) in experiment [2].
On the same counts, the results for `CC(C)C[C@H](NC(=O)[C@H](CCCCN)NC(=O)[C@H](CC(C)C)NC(=O)[C@H](CC(C)C)NC(=O)[C@H](CCCCN)NC(=O)[C@H](CCCCN)NC(=O)[C@H](CCC(N)=O)NC(=O)[C@H](CC(C)C)NC(=O)[C@H](CCCCN)NC(=O)[C@H](CC(C)C)NC(=O)[C@H](CC(C)C)NC(=O)[C@H](CCCCN)NC(=O)[C@H](CCCCN)NC(=O)[C@@H](N)CC(C)C)C(=O)N[C@@H](C)C(=O)NCC(=O)O` [LKKLLKLQKKLLKLAG] are more than 40 µM and 2.5 µM (≈ 4.59 µg/mL).
With `CC[C@H](C)[C@H](NC(=O)[C@H](CCCCN)NC(=O)[C@H](CC(=O)O)NC(=O)[C@H](Cc1ccccc1)NC(=O)[C@H](CC(C)C)NC(=O)[C@@H](N)CCCN=C(N)N)C(=O)N[C@@H](CCCN=C(N)N)C(=O)N[C@@H](CCC(N)=O)C(=O)N[C@H](C(=O)N[C@H](C(=O)N[C@@H](CCCN=C(N)N)C(=O)N[C@@H](CCCCN)C(=O)O)[C@@H](C)CC)C(C)C` [RLFDKIRQVIRK], the minimum inhibitory concentration (MIC) in [1] was found to be 10 µM (≈ 15.7 µg/mL); in [7], 5 µM (≈ 7.86 µg/mL); in experiment [4], 10 µM (≈ 15.7 µg/mL); in [2], 5 µM (≈ 7.86 µg/mL).
Consider `CC[C@H](C)[C@H](NC(=O)[C@H](CCCCN)NC(=O)[C@H](CCCCN)NC(=O)CNC(=O)[C@@H](NC(=O)CNC(=O)[C@H](Cc1ccccc1)NC(=O)[C@H](CC(N)=O)NC(=O)CNC(=O)[C@H](CO)NC(=O)[C@H](CC(C)C)NC(=O)[C@@H](NC(=O)[C@@H](N)CO)[C@@H](C)CC)C(C)C)C(=O)N[C@H](C(=O)N[C@H]1CSSC[C@@H](C(=O)O)NC(=O)[C@H](CC(C)C)NC(=O)CNC(=O)[C@H](CO)NC(=O)[C@H](CC(C)C)NC(=O)CNC1=O)C(C)C` [SILSGNFGVGKKIVCGLSGLC], for which the minimal inhibitory concentration (MIC) with Escherichia coli is 25 µM (≈ 51.3 µg/mL); against Staphylococcus aureus, more than 100 µM.
Regarding `CC[C@H](C)[C@H](NC(=O)[C@H](Cc1c[nH]c2ccccc12)NC(=O)[C@H](CCCCN)NC(=O)[C@@H](NC(=O)[C@H](CC(C)C)NC(=O)[C@H](CCCCN)NC(=O)CNC(=O)[C@@H](NC(=O)[C@@H](NC(=O)[C@@H](N)CO)[C@@H](C)O)[C@@H](C)CC)C(C)C)C(=O)N[C@H](C(=O)N[C@@H](CCCCN)C(=O)N[C@H](C(=O)N[C@H](C(=O)N[C@@H](CC(N)=O)C(=O)N[C@@H](CCCCN)C(=O)N[C@@H](Cc1ccccc1)C(=O)N[C@H](C(=O)N[C@@H](CCCCN)C(=O)N[C@@H](CCCCN)C(=O)O)[C@@H](C)O)C(C)C)[C@@H](C)O)[C@@H](C)CC` [STIGKLVKWIIKTVNKFTKK], the values for the minimum inhibitory concentration (MIC) with Escherichia coli and against Staphylococcus aureus were 2.4 µM (≈ 5.6 µg/mL) and 4.8 µM (≈ 11.2 µg/mL), respectively.
